This experiment has as its system BDNF-induced nuclear Arc expression in primary cortical neurons. Put plainly: Chemogenomic screen: high-content image-based assay of BDNF-induced nuclear Arc expression (96-well). It counts as cell-based, mouse. On the procedure: To increase the throughput of our pharmacological screening for modulators of Arc, the above mentioned assay was adapted to cultures of mouse primary cortical neurons in 96-well plates.
All 319 compounds were initially tested at a final concentration of 16.7 µM with three biological replicates.
Screening of compounds in the chemogenomic library was carried out using DIV13 primary forebrain cortical neurons cultured on poly-L-lysine/laminin-coated 96-well plates (Ibidi USA, Madison, WI). Cells were seeded at a density of 30,000 cells per well and treated with the compound library and BDNF according to the experimental design presented in Fig. 3a. After experimental treatment, cells were processed for Arc and acetyl-H3K9 immunocytochemistry according to the protocol described above. Both antigens (Arc and acetyl-H3K9) were imaged using an IN Cell Analyzer 6000 imaging system and a ×40 objective. […] High-throughput quantification of nuclear Arc immunofluorescence signal was performed in a similar fashion than the low-throughput procedure described above but with the exception that acetyl-H3K9 was used as a nuclear mask to guide the automated quantification of nuclear Arc immunofluorescence signal.

The mark [1] stands for this setting: chemogenomic (SMART) screen, BDNF-induced nuclear Arc expression, primary cortical neurons, BDNF control 19.5.
Where [2] appears, read: nuclear Arc-positive cells relative to DMSO + BDNF control, negative values = decrease.
The mark [3] stands for this setting: BDNF-induced nuclear Arc expression, primary cortical neurons, chemogenomic screen.
Setting [4] is: nuclear Arc-positive cells relative to DMSO control (BDNF), negative = decrease.

Like-named read-outs stand apart in the source and are kept apart here. Non-standard residues stand in square brackets, D forms with d. Residues, ends and D or L forms follow the SMILES beside them. αMeP = C[C@@]1(C(=O)O)CCCN1

Take `N#Cc1ccccc1-c1cc(-c2ccccn2)cn(-c2ccccc2)c1=O` [Perampanel]: the “Percentage of cell with nuclear Arc immunostaining above 2σ threshold” value (from here on “Percentage of cell”) is 12.4%.
As to `C=C[C@@]1(C)CC(=O)[C@]2(O)[C@@]3(C)[C@@H](O)CCC(C)(C)[C@@H]3[C@H](OC(=O)CCN(C)C)[C@H](OC(C)=O)[C@@]2(C)O1.Cl` [Colforsin dapropate hydrochloride], under setting [1], the “Percentage of cell” value is 21.7%. Also, under setting [2], the “Fold-change — Normalized to DMSO control (BDNF)” value (“Fold-change — Normalized” for short) turned out to be 1.1 fold.
For `C[N+](C)(C)C[C@H](O)CC(=O)[O-]` [Levocarnitine], the “Percentage of cell” value under setting [3] is on record as 10.1%.
On the same count and under the same terms, next, `CC(=O)/N=c1/sc(S(N)(=O)=O)nn1C` [Methazolamide]: 11.8%.
With `CC(=O)[C@H]1CC[C@H]2[C@@H]3CC=C4C[C@@H](O)CC[C@]4(C)[C@H]3CC[C@]12C` [Pregnenolone], under setting [1], the “Percentage of cell” value is recorded as 24.4%. Under setting [2], the “Fold-change — Normalized” value worked out at 1.2 fold.
Take `C[C@@]1(C(=O)N[C@@H](CCC(=O)O)C(=O)O)CCCN1C(=O)CN` [NNZ-2566] (H-Gly-[αMeP]-Glu-OH): the “Percentage of cell” value under setting [3] turned out to be 6.7%. Besides, under setting [4], the “Fold-change — Normalized” value is given as -2.9 fold.
Regarding `CN(C)CCC=C1c2ccccc2CCc2ccccc21` [Amitriptyline], the “Percentage of cell” value under setting [1] is on record as 12.3%.
As to `Nc1c2c(nc3ccccc13)CCCC2` [Tacrine], the “Percentage of cell” value under setting [3] is on record as 8.3%.
As for `OC(CCN1CCCCC1)(c1ccccc1)C1CC2C=CC1C2` (stereo not drawn) [Biperiden], the “Percentage of cell” value under setting [1] stood at 13.3%.
On to `OC[C@H]1O[C@@H](OCCc2ccc(O)cc2)[C@H](O)[C@@H](O)[C@@H]1O` [Salidroside], for which, under setting [1], the “Percentage of cell” value is 30.7%. Besides, the “Fold-change — Normalized” value under setting [2] amounted to 1.6 fold.
For `COc1ccc2c3c1O[C@H]1C[C@@H](O)C=C[C@@]31CCN(C)C2` [Galantamine], the “Percentage of cell” value came to 4.2%.
`CCCC(CCC)C(N)=O` [Valpromide]: the “Percentage of cell” value under setting [1] worked out at 19.8%. Moreover, the “Fold-change — Normalized” value under setting [2] is recorded as 1.0 fold.
In the case of `O=C1c2cc3c(cc2OC2CCCN12)OCCO3` (stereo not drawn) [CX-614], the “Percentage of cell” value worked out at 13.1%. In addition, the “Fold-change — Normalized” value under setting [2] is reported as -1.5 fold.
For the compound `COc1cc2c(cc1OC)[C@@H]1Cc3ccc(OC)c(OC)c3CN1CC2` [Rotundine], under setting [1], the “Percentage of cell” value came out at 28.7%. Moreover, under setting [2], the “Fold-change — Normalized” value is 1.5 fold.
Regarding `CCNC(=O)CC[C@H](N)C(=O)O` [Theanine], the “Percentage of cell” value under setting [3] is given as 9.1%.
Turning to `O=C(O[C@@H]1Cc2c(O)cc(O)cc2O[C@@H]1c1cc(O)c(O)c(O)c1)c1cc(O)c(O)c(O)c1` [(-)-Epigallocatechin gallate], the “Percentage of cell” value under setting [1] came out at 38.0%. Moreover, under setting [2], the “Fold-change — Normalized” value amounted to 1.9 fold.
For `O=C(c1ccc2c(c1)OCCO2)N1CCCCC1` [CX-546], the “Percentage of cell” value turned out to be 6.5%. In addition, the “Fold-change — Normalized” value under setting [4] is on record as -3.0 fold.
Consider `Cc1nc2n(c(=O)c1CCN1CCC(c3noc4cc(F)ccc34)CC1)CCCC2` [Risperidone], for which the “Percentage of cell” value worked out at 6.3%.
As for `O=C(O)c1ccc(O)c2ncccc12` [IOX1], under setting [1], the “Percentage of cell” value is recorded as 44.2%. Besides, the “Fold-change — Normalized” value under setting [2] was 2.3 fold.
Take `NC[C@H](CC(=O)O)c1ccc(Cl)cc1` [(R)-Baclofen]: the “Percentage of cell” value under setting [1] was 31.8%. The “Fold-change — Normalized” value under setting [2] was 1.6 fold.
`C[C@H](NCc1ccc(OCc2cccc(F)c2)cc1)C(N)=O` [Safinamide]: under setting [1], the “Percentage of cell” value came to 25.5%. Also, under setting [2], the “Fold-change — Normalized” value is on record as 1.3 fold.

The record behind these values is article PMC5698418 (Nature Communications, 2017).
